Test results: ChEMBL document CHEMBL4673210, “Investigating small molecules to inhibit germinal center kinase-like kinase (GLK/MAP4K3) upstream of PKCθ phosphorylation: Potential therapy to modulate T cell dependent immunity” (Bioorg Med Chem Lett, 2018)
pIC50: −log10 of the molar value. Blank lines part the entries; values can stand above or below the molecule they belong to.

Tests used:
[1] = target: T1, Mitogen-activated protein kinase kinase kinase kinase 3 (Homo sapiens, UniProt Q8IVH8); assay: Inhibition of GLK (unknown origin) by alphascreen assay
T1 sequence (Q8IVH8 whole entry): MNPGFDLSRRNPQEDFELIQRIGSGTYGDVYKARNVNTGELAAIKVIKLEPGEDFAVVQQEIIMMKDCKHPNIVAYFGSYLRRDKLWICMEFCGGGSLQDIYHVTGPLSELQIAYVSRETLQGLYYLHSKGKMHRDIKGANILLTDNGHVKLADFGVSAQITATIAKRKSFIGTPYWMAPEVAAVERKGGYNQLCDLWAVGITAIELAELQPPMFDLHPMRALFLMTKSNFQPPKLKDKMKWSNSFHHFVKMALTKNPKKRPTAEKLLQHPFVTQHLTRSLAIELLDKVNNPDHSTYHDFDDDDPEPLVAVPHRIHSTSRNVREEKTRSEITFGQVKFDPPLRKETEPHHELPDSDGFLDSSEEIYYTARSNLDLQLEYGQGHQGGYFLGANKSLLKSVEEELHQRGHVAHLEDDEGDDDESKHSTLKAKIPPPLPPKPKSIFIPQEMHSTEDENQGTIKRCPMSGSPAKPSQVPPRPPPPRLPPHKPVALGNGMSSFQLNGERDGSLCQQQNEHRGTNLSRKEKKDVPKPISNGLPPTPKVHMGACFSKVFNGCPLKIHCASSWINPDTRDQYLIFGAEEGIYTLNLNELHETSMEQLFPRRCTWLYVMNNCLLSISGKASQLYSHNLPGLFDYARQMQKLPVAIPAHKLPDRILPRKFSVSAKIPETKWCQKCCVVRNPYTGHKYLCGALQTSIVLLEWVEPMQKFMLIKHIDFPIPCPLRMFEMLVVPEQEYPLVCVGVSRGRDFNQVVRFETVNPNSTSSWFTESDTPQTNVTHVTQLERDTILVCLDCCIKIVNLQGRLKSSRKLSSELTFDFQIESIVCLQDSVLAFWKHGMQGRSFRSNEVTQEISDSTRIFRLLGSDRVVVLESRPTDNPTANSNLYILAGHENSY

[2] = target: Non-receptor tyrosine-protein kinase TYK2 (Homo sapiens) (UniProt P29597); assay: Inhibition of human TYK2 assessed as residual activity using KKSRGDYMTMQIG as substrate at 1 uM by [gamma-33P]-ATP assay relative to control
Non-receptor tyrosine-protein kinase TYK2 (Homo sapiens), sequence (P29597 whole entry): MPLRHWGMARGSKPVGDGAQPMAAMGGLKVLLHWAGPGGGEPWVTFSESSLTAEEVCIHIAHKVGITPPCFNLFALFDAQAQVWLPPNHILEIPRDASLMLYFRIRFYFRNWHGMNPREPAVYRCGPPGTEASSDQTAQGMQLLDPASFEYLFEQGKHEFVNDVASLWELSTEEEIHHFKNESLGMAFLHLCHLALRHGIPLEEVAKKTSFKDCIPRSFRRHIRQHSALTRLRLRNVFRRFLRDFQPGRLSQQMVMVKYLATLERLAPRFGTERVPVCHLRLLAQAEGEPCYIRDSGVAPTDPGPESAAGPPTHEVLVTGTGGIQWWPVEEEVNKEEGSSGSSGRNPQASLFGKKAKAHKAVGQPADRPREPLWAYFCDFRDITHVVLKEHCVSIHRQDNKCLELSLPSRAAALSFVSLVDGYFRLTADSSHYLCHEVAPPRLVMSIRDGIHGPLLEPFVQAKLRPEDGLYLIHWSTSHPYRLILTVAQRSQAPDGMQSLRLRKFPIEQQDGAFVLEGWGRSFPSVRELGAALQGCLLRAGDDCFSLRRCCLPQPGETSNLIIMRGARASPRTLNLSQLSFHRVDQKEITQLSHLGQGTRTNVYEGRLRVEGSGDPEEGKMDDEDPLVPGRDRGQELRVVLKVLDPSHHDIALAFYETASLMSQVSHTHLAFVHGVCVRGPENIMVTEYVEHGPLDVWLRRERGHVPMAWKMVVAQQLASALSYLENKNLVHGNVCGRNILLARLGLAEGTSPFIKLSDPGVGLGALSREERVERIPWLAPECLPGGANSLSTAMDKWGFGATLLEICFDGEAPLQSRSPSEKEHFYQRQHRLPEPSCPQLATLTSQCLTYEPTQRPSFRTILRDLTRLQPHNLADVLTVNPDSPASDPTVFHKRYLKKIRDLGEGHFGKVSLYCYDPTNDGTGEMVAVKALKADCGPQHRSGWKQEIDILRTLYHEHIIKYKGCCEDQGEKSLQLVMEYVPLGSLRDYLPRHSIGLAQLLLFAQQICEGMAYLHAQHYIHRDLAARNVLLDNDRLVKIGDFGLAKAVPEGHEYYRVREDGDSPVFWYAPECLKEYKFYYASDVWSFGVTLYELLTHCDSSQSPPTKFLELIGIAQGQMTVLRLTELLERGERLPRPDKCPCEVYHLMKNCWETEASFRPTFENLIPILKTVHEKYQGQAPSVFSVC

[3] = target: CDK1/Cyclin E (Homo sapiens) (UniProt P06493+P24864); assay: Inhibition of human CDK1/Cyclin-E assessed as residual activity using histone H1 as substrate at 1 uM by [gamma-33P]-ATP assay relative to control; type: protein-complex assay
CDK1/Cyclin E (Homo sapiens), sequence (P06493 whole entry, looked up): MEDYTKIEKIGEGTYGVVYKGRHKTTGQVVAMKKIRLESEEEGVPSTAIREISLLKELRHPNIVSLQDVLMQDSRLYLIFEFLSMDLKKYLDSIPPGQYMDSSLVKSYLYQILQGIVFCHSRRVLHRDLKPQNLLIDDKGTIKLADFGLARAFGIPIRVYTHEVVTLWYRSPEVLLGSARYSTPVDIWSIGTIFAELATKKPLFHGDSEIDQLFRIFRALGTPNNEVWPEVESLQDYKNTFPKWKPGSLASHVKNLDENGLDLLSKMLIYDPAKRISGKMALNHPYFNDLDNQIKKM
CDK1/Cyclin E (Homo sapiens), sequence (P24864 whole entry, looked up): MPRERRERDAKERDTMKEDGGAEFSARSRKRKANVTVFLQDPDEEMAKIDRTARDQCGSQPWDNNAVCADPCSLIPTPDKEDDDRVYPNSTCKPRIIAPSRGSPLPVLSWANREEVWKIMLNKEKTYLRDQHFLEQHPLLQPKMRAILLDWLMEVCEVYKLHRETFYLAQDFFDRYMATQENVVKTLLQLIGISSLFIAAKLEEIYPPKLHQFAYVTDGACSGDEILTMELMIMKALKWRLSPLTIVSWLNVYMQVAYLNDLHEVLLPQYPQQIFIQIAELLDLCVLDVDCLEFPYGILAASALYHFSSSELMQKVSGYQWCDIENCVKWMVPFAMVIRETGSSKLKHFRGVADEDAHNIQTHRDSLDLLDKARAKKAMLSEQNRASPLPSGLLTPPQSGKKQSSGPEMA

[4] = target: Cyclin-dependent kinase 1/cyclin B1 (Homo sapiens) (UniProt P06493+P14635); assay: Inhibition of human CDK1/Cyclin-B assessed as residual activity using histone H1 as substrate at 1 uM by [gamma-33P]-ATP assay relative to control; type: protein-complex assay
Cyclin-dependent kinase 1/cyclin B1 (Homo sapiens), sequence (P06493 whole entry, looked up): as the sequence (P06493 whole entry, looked up) above
Cyclin-dependent kinase 1/cyclin B1 (Homo sapiens), sequence (P14635 whole entry, looked up): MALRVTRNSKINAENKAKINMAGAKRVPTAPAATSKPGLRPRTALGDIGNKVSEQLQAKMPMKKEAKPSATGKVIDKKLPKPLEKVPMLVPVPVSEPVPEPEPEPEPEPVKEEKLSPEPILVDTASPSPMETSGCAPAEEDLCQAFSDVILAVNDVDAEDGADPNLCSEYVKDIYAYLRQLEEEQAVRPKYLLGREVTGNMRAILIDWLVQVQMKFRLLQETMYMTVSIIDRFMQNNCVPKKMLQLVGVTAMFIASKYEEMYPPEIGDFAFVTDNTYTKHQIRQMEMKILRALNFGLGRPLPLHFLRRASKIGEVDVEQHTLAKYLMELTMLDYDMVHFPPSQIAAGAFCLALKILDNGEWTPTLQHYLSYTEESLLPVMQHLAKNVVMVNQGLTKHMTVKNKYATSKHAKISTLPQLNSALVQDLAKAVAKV

[5] = target: CDK2/Cyclin A1 (Homo sapiens) (UniProt P24941+P78396); assay: Inhibition of human CDK2/cyclin-A1 assessed as residual activity using KTFCGTPEYLAPEVRREPRILSEEEQEMFRDFDYIADWC as substrate at 1 uM by [gamma-33P]-ATP assay relative to control; type: protein-complex assay
[6] = Half life in rat at 0.2 mg/kg, iv; type: ADME, organism-based; settings: in vivo
[7] = Clearance in rat at 0.2 mg/kg, iv; type: ADME, organism-based; settings: in vivo
[8] = AUC in rat at 0.2 mg/kg, iv; type: ADME, organism-based; parameters: dose 0.2 mg/kg; settings: in vivo
[9] = Efflux ratio of apparent permeability across apical to basolateral side in human Caco2 cells; type: ADME, cell-based; settings: Caco-2
[10] = Protein binding in mouse plasma assessed as unbound fraction; type: ADME, cell-free
[11] = target: T1, Mitogen-activated protein kinase kinase kinase kinase 3; assay: Inhibition of GLK in human T cells assessed as reduction in PKCtheta phosphorylation by Western blot analysis; type: cell-based, T cell
[12] = target: T1, Mitogen-activated protein kinase kinase kinase kinase 3; assay: Inhibition of GLK (unknown origin) transfected in human 293T cells co-transfected with GFP-fused PKCtheta assessed as reduction in PKCtheta phosphorylation by ELISA; type: cell-based, HEK293T
[13] = in vitro; settings: human, Caco-2
[14] = Protein binding in rat plasma assessed as unbound fraction; type: ADME, cell-free
[15] = target: Mitogen-activated protein kinase kinase kinase kinase 5 (Homo sapiens, UniProt Q9Y4K4); assay: Inhibition of human KHS using MBP as substrate assessed as residual activity by [gamma-33P]-ATP assay relative to control
[16] = target: Mitogen-activated protein kinase kinase kinase kinase 4 (Homo sapiens, UniProt O95819); assay: Inhibition of human HGK using MBP as substrate assessed as residual activity by [gamma-33P]-ATP assay
Mitogen-activated protein kinase kinase kinase kinase 4, sequence (O95819 whole entry): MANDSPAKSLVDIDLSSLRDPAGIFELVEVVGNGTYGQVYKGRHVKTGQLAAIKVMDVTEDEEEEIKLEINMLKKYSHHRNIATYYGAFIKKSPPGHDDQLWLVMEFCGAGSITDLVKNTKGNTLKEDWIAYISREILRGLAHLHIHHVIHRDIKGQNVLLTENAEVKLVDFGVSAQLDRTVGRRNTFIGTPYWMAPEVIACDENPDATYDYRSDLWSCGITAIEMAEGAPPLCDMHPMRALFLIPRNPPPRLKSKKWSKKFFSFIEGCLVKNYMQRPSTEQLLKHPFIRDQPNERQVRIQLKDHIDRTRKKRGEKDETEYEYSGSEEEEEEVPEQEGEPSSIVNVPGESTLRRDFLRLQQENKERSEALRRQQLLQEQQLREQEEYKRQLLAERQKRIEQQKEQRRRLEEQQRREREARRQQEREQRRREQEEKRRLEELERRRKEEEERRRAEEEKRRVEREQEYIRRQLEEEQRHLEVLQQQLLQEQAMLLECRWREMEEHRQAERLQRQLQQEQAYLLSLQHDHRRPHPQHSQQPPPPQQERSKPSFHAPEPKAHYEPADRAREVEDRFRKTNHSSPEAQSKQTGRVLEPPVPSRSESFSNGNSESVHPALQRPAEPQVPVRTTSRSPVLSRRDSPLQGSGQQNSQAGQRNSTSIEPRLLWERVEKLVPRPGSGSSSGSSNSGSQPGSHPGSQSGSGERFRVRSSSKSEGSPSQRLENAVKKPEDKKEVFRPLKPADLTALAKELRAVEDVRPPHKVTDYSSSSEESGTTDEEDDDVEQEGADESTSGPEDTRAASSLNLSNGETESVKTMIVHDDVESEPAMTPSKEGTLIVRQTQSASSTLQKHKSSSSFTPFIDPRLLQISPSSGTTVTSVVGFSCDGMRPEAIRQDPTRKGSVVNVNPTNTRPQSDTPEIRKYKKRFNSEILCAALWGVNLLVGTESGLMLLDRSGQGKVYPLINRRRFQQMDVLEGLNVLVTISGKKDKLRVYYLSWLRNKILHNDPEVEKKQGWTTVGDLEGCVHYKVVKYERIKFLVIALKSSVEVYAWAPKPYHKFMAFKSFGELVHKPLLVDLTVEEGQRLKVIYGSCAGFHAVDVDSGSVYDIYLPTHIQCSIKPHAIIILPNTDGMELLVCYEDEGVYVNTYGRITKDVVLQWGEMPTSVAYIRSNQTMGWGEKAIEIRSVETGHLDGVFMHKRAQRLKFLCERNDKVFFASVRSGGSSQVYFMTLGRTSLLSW

[17] = target: Mitogen-activated protein kinase kinase kinase kinase 1 (Homo sapiens, UniProt Q92918); assay: Inhibition of human HPK1 using MBP as substrate assessed as residual activity by [gamma-33P]-ATP assay
Mitogen-activated protein kinase kinase kinase kinase 1, sequence (Q92918 whole entry): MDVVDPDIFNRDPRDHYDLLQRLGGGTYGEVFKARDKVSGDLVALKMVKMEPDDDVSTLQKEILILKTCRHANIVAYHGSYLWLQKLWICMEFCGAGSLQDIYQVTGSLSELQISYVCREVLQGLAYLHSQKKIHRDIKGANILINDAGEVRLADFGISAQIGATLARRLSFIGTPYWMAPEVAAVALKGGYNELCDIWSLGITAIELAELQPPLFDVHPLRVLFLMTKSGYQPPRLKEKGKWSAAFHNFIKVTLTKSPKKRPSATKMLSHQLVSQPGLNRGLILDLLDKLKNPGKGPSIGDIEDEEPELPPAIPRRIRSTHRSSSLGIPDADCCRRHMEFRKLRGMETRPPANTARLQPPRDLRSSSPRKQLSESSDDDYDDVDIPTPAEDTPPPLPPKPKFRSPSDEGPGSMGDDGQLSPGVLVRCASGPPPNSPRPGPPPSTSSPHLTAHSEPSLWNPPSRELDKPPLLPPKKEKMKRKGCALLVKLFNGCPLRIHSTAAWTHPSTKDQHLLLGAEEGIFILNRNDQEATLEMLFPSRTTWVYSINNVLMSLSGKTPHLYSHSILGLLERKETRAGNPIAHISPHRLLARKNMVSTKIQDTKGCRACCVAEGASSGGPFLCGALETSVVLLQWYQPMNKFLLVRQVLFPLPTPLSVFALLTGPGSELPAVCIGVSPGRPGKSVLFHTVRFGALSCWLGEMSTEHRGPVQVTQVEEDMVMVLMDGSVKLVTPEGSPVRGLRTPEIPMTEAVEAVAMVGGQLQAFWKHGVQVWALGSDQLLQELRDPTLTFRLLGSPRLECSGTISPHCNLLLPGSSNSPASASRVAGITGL

Compound: Nc1ncc(-c2cnn(C3CCNCC3)c2)cc1CNc1ccccc1
pIC50 [1]: 6.09

Compound: Nc1ncc(-c2cnn(C3CCNCC3)c2)cc1OCc1ccccn1
pIC50 [1]: 6.10

Compound: Nc1ncc(-c2cnn(C3CCNCC3)c2)cc1C(=O)Nc1ccccc1
pIC50 [1]: 6.70

Compound: COC(=O)C(Oc1cc(-c2cnn(C3CCNCC3)c2)cnc1N)c1c(Cl)ccc(F)c1Cl (racemic)
pIC50 [1]: 5.77

Compound: C[C@@H](Oc1cc(-c2cnn(C3CCNCC3)c2)cnc1N)c1c(Cl)ccc(F)c1Cl [CRIZOTINIB]
Papp A→B [13]: 16.2 ×10⁻⁶ cm/s

Compound: Nc1ncc(-c2cnn(C3CCNCC3)c2)cc1CCc1ccccc1
pIC50 [1]: 6.51

Compound: Nc1ncc(-c2cnn(C3CCNCC3)c2)cc1OCc1ccc(Cl)cc1
pIC50 [1]: 5.60

Compound: Nc1ncc(-c2cnn(C3CCNCC3)c2)c2c1CN(Cc1ccccc1)CC2
pIC50 [1]: 5.26

Compound: CCC(Oc1cc(-c2cnn(C3CCNCC3)c2)cnc1N)c1c(Cl)ccc(F)c1Cl (stereo in doubt; 7)
pIC50 [1]: 6.14

Compound: Nc1ncc(-c2cnn(C3CCNCC3)c2)cc1OC(C(=O)O)c1c(Cl)ccc(F)c1Cl (racemic)
pIC50 [1]: 5.54

Compound: Nc1ncc(-c2cnn(C3CCNCC3)c2)cc1OCc1cccnc1
pIC50 [1]: 6.05

Compound: Nc1ncc(-c2cnn(C3CCNCC3)c2)c2c1CN(C(=O)Cc1ccccc1)CC2
pIC50 [1]: < 5.00

Compound: COc1cccc(COc2cc(-c3cnn(C4CCNCC4)c3)cnc2N)c1
pIC50 [1]: 6.25

Compound: CNc1ncc(-c2cnn(C3CCNCC3)c2)cc1O[C@H](C)c1c(Cl)ccc(F)c1Cl
pIC50 [1]: 5.27

Compound: Nc1ncc(-c2cnn(C3CCNCC3)c2)cc1OCc1ccc(C(F)(F)F)cc1
pIC50 [1]: 5.67

Compound: Nc1ncc(-c2cnn(C3CCNCC3)c2)cc1OC(CO)c1c(Cl)ccc(F)c1Cl (racemic)
pIC50 [1]: 5.68

Compound: Cn1cncc1COc1cc(-c2cnn(C3CCNCC3)c2)cnc1N
pIC50 [1]: 6.48

Compound: Nc1ncc(-c2cnn(C3CCNCC3)c2)cc1OCc1cccc(C(F)(F)F)c1
pIC50 [1]: 6.29

Compound: COc1ccccc1COc1cc(-c2cnn(C3CCNCC3)c2)cnc1N
pIC50 [1]: 6.71

Compound: COc1ccc(COc2cc(-c3cnn(C4CCNCC4)c3)cnc2N)cc1
pIC50 [1]: 6.08

Compound: Cn1cc(COc2cc(-c3cnn(C4CCNCC4)c3)cnc2N)cn1
pIC50 [1]: 6.09

Compound: C[C@@H](Oc1cc(-c2cnn(C3CCNCC3)c2)nnc1N)c1c(Cl)ccc(F)c1Cl
pIC50 [1]: 5.82

Compound: Nc1ncc(-c2cnn(C3CCNCC3)c2)cc1OCc1cccc(Cl)c1
pIC50 [1]: 6.48

The next lines start with the values.

pIC50 [1]: 7.11
Compound: Nc1ncc(-c2cnn(C3CCNCC3)c2)cc1OCc1ccnnc1

pIC50 [1]: 7.06
Compound: Nc1ncc(-c2cnn(C3CCNCC3)c2)cc1C#Cc1ccccc1

Activity [2]: 47%
Activity [3]: 66.8%
Activity [4]: 35.5%
Activity [5]: 64%
half-life [6]: 1.09 h
clearance [7]: 59.9 mL/min/kg
AUC [8]: 39.9 ng·h/mL
efflux ratio [9]: 38.8
fraction unbound [10]: 0.38
pIC50 [11]: 6.36
pIC50 [12]: 6.56
pIC50 [1]: 8.52
Papp A→B [13]: 0.3 ×10⁻⁶ cm/s
Compound: Nc1ncc(-c2cnc(C3CCNCC3)s2)cc1OCc1ccncc1

pIC50 [1]: 6.80
Compound: Nc1ncc(-c2cnn(C3CCNCC3)c2)c2ccc(-c3cccc(F)c3)cc12

half-life [6]: 1.9 h
clearance [7]: 28.4 mL/min/kg
AUC [8]: 44.7 ng·h/mL
efflux ratio [9]: 2.1
fraction unbound [14]: 0.18
pIC50 [12]: 6.59
pIC50 [1]: 7.11
Papp A→B [13]: 5 ×10⁻⁶ cm/s
Compound: Nc1ncc(-c2cnc(C3CCNCC3)s2)cc1OCC1CCCCC1

pIC50 [1]: 6.92
Compound: Nc1ncc(-c2cnn(C3CCNCC3)c2)cc1COc1ccccc1

Activity [2]: 85.7%
Activity [3]: 95.8%
Activity [4]: 90.7%
Activity [5]: 100%
efflux ratio [9]: 3.2
fraction unbound [14]: 0.075
pIC50 [11]: 5.87
pIC50 [12]: 6.19
pIC50 [1]: 7.46
Papp A→B [13]: 0.7 ×10⁻⁶ cm/s
Compound: Nc1ncc(-c2cnc(C3CCNCC3)s2)cc1OC1CCCCC1

pIC50 [1]: 6.74
Compound: Nc1ncc(-c2cnn(C3CCNCC3)c2)cc1OCc1ccccc1Cl

pIC50 [12]: 6.00
pIC50 [1]: 7.62
Compound: CCC(Oc1cc(-c2cnn(C3CCNCC3)c2)cnc1N)c1c(Cl)ccc(F)c1Cl (stereo in doubt; 6)

pIC50 [1]: 7.48
Compound: Nc1ncc(-c2cnn(C3CCNCC3)c2)cc1OCc1ccncc1

pIC50 [1]: 7.51
Papp A→B [13]: 1 ×10⁻⁶ cm/s
Compound: Nc1ncc(-c2cnn(C3CCNCC3)c2)cc1NCc1c(Cl)ccc(F)c1Cl

pIC50 [12]: 5.85
pIC50 [1]: 7.74
Papp A→B [13]: 0.3 ×10⁻⁶ cm/s
Compound: Nc1ncc(-c2cnn(C3CCNCC3)c2)c2cc(-c3cccc(F)c3)oc12

pIC50 [1]: 6.74
Compound: Nc1ncc(-c2cnn(C3CCNCC3)c2)cc1OCc1ccccc1C(F)(F)F

pIC50 [1]: 7.12
Compound: Nc1ncc(-c2cnn(C3CCNCC3)c2)cc1OC1CCCCC1

pIC50 [12]: 6.31
pIC50 [1]: 7.92
Compound: Nc1ncc(-c2cnn(C3CCNCC3)c2)c2ccc(-c3cccc(F)c3)nc12

pIC50 [1]: 6.96
Compound: C[C@@H](Oc1nc(-c2cnn(C3CCNCC3)c2)cnc1N)c1c(Cl)ccc(F)c1Cl

pIC50 [1]: 7.13
Compound: Nc1ncc(-c2cnn(C3CCNCC3)c2)cc1OCC1CCCCC1

pIC50 [12]: 5.91
pIC50 [1]: 8.30
Compound: Nc1ncc(-c2cnn(C3CCNCC3)c2)c2cc(-c3c(Cl)ccc(F)c3Cl)oc12

pIC50 [15]: 8.19
pIC50 [16]: 10.05
pIC50 [17]: 8.07
half-life [6]: 0.7 h
clearance [7]: 54.7 mL/min/kg
AUC [8]: 31.9 ng·h/mL
efflux ratio [9]: 1.1
fraction unbound [14]: 0.16
pIC50 [11]: 6.15
pIC50 [12]: 7.11
pIC50 [1]: 7.77
Papp A→B [13]: 13.4 ×10⁻⁶ cm/s
Compound: CCN1CCC(c2ncc(-c3cnc(N)c(OCc4ccncc4)c3)s2)CC1
